Assay results as given in US20100016335A1, “NOVEL AMINOPYRIDINE DERIVATIVES HAVING AURORA A SELECTIVE INHIBITORY ACTION” (priority 2006, published 2010).
pIC50: −log10 of the molar value. Structures can show the parent of a compound that is named as a salt. Where two headings read alike, the source gives them in different places.

Experiments:
[1] = system: Human cervical cancer cells (HeLa S3); test: Cell growth inhibitory effect, WST-8 method; format: cell-based; conditions: Homo sapiens, 72 h; HeLa S3, three days incubation; read-out: Cell growth inhibitory effect (HeLaS3) (IC50)
Description: Fetal calf serum (FCS) was purchased from Moregate Biotech, and DMEM medium was purchased from Invitrogen Corp. WST-8 was purchased from Kishida Chemical Co., Ltd.
(§1) Human cervical cancer cells (HeLa S3) were obtained from the American Type Culture Collection (ATCC).
Cells were suspended in a DMEM medium containing 10% FCS, and the cell suspension was dispensed to a 96-well plastic plate at a rate of 750 cells/100 microliters per well. The plate was incubated overnight in 5% CO2-95% air at 37° C. A drug was subjected to graded dilution in dimethylsulfoxide and further diluted with a DMEM medium containing 10% FCS. Then, the dilution was dispensed to the plate on which cells had been disseminated in advance, at a rate of 100 microliters per well. The plate was incubated for further three days in 5% CO2-95% air at 37° C. Cell growth after incubation was measured by the WST-8 method (H. Tominaga, et al., Anal. Commun., 36, 47-50 (1999)). Here, the WST-8 method refers to a method in which 20 microliters of a WST-8 reagent solution is added to each well, incubation is conducted at 37° C. for 60 minutes, the plate is stirred, and the amount of formazan produced is measured by a […] method to determine the inhibitory rate of the drug.

[2] = system: Human cervical cancer cells (HeLa S3); test: Effect by combined use of drugs in cells (docetaxel), WST-8 method; format: cell-based; conditions: HeLa S3, three days; for inhibition at 0.3 µM / inhibition at 1 µM / inhibition at 0.1 µM: Homo sapiens, read-out: Cell growth inhibitory effect by sole administration of the compound of Example (%); for inhibition at 0.3 µM: compound 0.3 μM alone; for inhibition at 1 µM: compound 1.0 μM alone; for inhibition at 0.1 µM: compound 0.1 μM alone
Description: Fetal calf serum (FCS) was purchased from Moregate Biotech, DMEM medium from Invitrogen Corp., docetaxel (tradename: Taxere) from Sigma-Aldrich, Inc., and WST-8 from Kishida Chemical Co., Ltd.
as §1
Cells were suspended in a DMEM medium containing 10% FCS, and the cell suspension was dispensed to two 96-well plastic plates at a rate of 750 cells/100 microliters per well. The plates were incubated overnight in 5% CO2-95% air at 37° C. A drug was subjected to graded dilution in dimethylsulfoxide and further diluted with DMSO or with a DMEM medium containing 10% FCS and also containing 0.6 nM docetaxel. Then, the dilutions were each dispensed to one of the plates on which cells had been disseminated in advance, at a rate of 100 microliters per well. The final concentration of docetaxel at this stage was 0.3 nM. Also, the concentrations in the case of sole administration of the compound according to the invention were 0.003, 0.01, 0.03, 0.1, 0.3, 1, 3 and 10 μM. The plates were incubated for further three days in 5% CO2-95% air at 37° C. Cell growth after incubation was measured by the WST-8 method (H. Tominaga, et al., Anal. Commun., 36, 47-50 (1999)). Here, the WST-8 method refers to a method in which 20 microliters of a WST-8 reagent solution is added to each well, incubation is conducted at 37° C. for 60 minutes, the plate is stirred, and the amount of formazan produced is measured by a colorimetric method to determine the inhibitory rate of the drug. The growth inhibitory effects of docetaxel and of the compound according to the invention were determined, with the value obtained in sole treatment of DMSO being defined as 0%.

[3] = biological target: T1, GST-tagged human Aurora B(AurB)/His-tagged human INCENP complex proteins (Homo sapiens, UniProt Q96GD4); test: Aurora B inhibitory activity (Method A, IMAP assay kit); format: biochemical; conditions: 40 μM ATP, 25° C., 45 minutes
T1 construct: GST; purchased Carna Biosciences, Inc
Description: An assay development kit for IMAP (registered trademark) (Aurora B), purchased from Carna Biosciences, Inc., was used for phosphorylation reaction, and the phosphorylation of a substrate was detected using the IMAP technology. […] Using the same, the phosphorylation reaction was conducted in accordance with a partially revised protocol attached to the kit, and then the phosphorylation of the substrate was detected using the IMAP technology.
For the phosphorylation reaction, 384 well plate was used, and the reaction volume was 10 μl/well. The composition of the reaction buffer (assay buffer) is comprised of 20 mM of HEPES buffer (pH 7.4), 0.01% Tween-20, and 2 mM of dithiothreitol (DTT). Thereto, AurB/INCENP complex protein, 100 nM of the substrate, and 40 μM of ATP, and 1 mM of magnesium salt were added, and then the reaction was conducted at 25° C. for 45 minutes. Thereafter, in order to terminate and detect the reaction, 30 μl of the IMAP (registered trademark) binding reagent (IMAP Progressive Binding Reagent, R7284) that had been diluted (1:400) in the 1× IMAP binding buffer A (IMAP Progressive Binding Buffer A, 5× stock, R7282) was added to each well.
(§2) The compound to be tested was added to the reaction system such that a dilution series of the compound in DMSO was prepared, and then 0.5 μL of this solution was added for the testing to each well. Each control well was provided by adding 0.5 μL of DMSO to the well in place of the DMSO solution containing the compound to be tested.

human Aurora A = biological target: T2, human Aurora A (Homo sapiens, UniProt O14965); test: Aurora A inhibitory activity (IMAP fluorescence polarization phosphorylation assay); format: biochemical; conditions: 20 μM ATP, 30° C., 120 minutes
T2 construct: His (N); made in house; host or cells: Escherichia coli BL21-CodonPlus(DE3)-RIL
T2 sequence (O14965 1-403): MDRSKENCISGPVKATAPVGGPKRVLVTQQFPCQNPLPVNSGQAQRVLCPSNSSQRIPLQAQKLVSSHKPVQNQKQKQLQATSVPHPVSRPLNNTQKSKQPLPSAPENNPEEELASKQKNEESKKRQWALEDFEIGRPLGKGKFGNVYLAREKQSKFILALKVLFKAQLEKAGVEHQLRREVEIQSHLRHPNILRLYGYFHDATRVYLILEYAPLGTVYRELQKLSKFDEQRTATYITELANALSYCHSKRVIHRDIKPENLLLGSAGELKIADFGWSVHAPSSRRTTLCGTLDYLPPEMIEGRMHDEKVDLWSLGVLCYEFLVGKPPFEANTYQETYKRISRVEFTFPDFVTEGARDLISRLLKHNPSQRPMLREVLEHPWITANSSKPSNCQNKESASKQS
Description: cDNA of N-terminal His-tagged human Aurora A was integrated into an expression vector, which was then highly expressed in Escherichia coli BL21-CodonPlus(DE3)-RIL cells. The Escherichia coli was harvested and lysed, and then the His-tagged human Aurora A protein was applied onto a nickel chelate column and eluted from the column with imidazole. The active fractions were desalted with a desalting column to give a purified enzyme.
For the phosphorylation reaction, the method by Upstate, Inc. [Kinase Profiler™ Assay Protocols] was referred to, and phosphorylation of the substrate was detected using IMAP® technology (Molecular Devices, Co. Ltd.) (Gaudet E W. et. al, J. Biomol. Screen, 8, 164-175 (2003)). Concretely, the phosphorylation reaction and the detection were carried out as follows:
The phosphorylation reaction was conducted using 384 well plate, and the reaction volume was 10 μl/well. The reaction buffer is comprised of 50 mM Tris-chloride buffer (pH 7.4), 15 mM magnesium acetate, and 0.2 mM ethylenediamine-N,N,N′,N′-tetraacetic acid (EDTA). Thereto, the purified Aurora A protein, 100 nM of the peptide substrate, and 20 μM of adenosine 5′-triphosphate (ATP) were added, and then the reaction was carried out at 30° C. for 120 minutes.
Thereafter, in order to terminate and detect the reaction, 30 μl of the IMAP (registered trademark) binding reagent (IMAP Progressive Binding Reagent, R7284) that had been diluted (1:400) in the 1×IMAP binding buffer A (IMAP Progressive Binding Buffer A, 5× stock, R7282) was added to each well. The solution stood still for 60 minutes in the dark, and then fluorescence polarization was measured using a high-end microplate reader (excitation wavelength: 485 nm; emission wavelength: 520 nm).
as §2, with “in dimethylsulfoxide (DMSO)” for “in DMSO”

[4] = compound 0.3 μM + docetaxel 0.3 nM
[5] = compound 1.0 μM + docetaxel 0.3 nM
[6] = compound 0.1 μM + docetaxel 0.3 nM

T1 sequence (Q96GD4 whole entry): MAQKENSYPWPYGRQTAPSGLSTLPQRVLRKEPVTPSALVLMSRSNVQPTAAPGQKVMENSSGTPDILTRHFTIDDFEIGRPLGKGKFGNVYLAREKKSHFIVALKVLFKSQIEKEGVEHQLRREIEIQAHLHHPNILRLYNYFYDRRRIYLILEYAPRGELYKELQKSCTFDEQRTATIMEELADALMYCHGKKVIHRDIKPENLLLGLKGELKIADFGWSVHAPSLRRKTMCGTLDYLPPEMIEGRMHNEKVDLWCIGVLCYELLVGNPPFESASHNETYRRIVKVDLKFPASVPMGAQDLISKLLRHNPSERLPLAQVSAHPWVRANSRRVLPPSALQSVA
T1 sequence (Q9NQS7 803-916 partner limits assumed): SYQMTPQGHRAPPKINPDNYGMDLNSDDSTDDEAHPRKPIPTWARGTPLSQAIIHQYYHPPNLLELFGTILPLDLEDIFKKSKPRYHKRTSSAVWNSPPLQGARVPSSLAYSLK

## NC(=O)[C@]1(Cc2cccc(Nc3cc[nH]n3)n2)CC[C@@H](Oc2cccc(Cl)c2F)CC1 [Example 11, trans-4-(3-chloro-2-fluorophenoxy)-1-((6-(1H-pyrazol-3-ylamino)pyridin-2-yl)methyl)cyclohexanecarboxamide]
[1]
  pIC50: 5.55
[2]; HeLa S3, 72 h
  inhibition at 0.3 µM: 15.1%
  inhibition at 1 µM: 25.4%
[2]; [4]
  Cell growth inhibitory effect by combined administration of docetaxel and the compound of Example (%): 72.1%
[2]; [5]
  Cell growth inhibitory effect by combined administration of docetaxel and the compound of Example (%): 84.5%
[3]
  pIC50: 6.12
Human Aurora A
  pIC50: 8.74

## CONC(=O)[C@]1(Cc2cccc(Nc3nccs3)n2)CC[C@@H](Oc2cccc(Cl)c2F)CC1 [Example 18, trans-4-(3-chloro-2-fluorophenoxy)-N-methoxy-1-((6-(1,3-thiazol-2-ylamino)pyridin-2-yl)methyl)cyclohexanecarboxamide]
[1]
  pIC50: 6.05
[2]; HeLa S3, 72 h
  inhibition at 0.1 µM: 7.4%
  inhibition at 0.3 µM: 21.3%
[2]; [6]
  Cell growth inhibitory effect by combined administration of docetaxel and the compound of Example (%): 61.5%
[2]; [4]
  Cell growth inhibitory effect by combined administration of docetaxel and the compound of Example (%): 77.4%
[3]
  pIC50: 6.70
Human Aurora A
  pIC50: 9.31

## Cl.O=C(O)[C@]1(Cc2cccc(Nc3nccs3)n2)CC[C@@H](Oc2cccc(Cl)c2Cl)CC1 [Example 6, trans-4-(2,3-dichlorophenoxy)-1-((6-(1,3-thiazol-2-ylamino)pyridin-2-yl)methyl)cyclohexanecarboxylic acid hydrochloride]
[1]
  pIC50: 5.71
[2]; HeLa S3, 72 h
  inhibition at 0.3 µM: 7.2%
  inhibition at 1 µM: 25.6%
[2]; [4]
  Cell growth inhibitory effect by combined administration of docetaxel and the compound of Example (%): 70.0%
[2]; [5]
  Cell growth inhibitory effect by combined administration of docetaxel and the compound of Example (%): 87.0%
[3]
  pIC50: 7.43
Human Aurora A
  pIC50: 10.15

## O=c1[nH]nc([C@]2(Cc3cccc(Nc4cc[nH]n4)n3)CC[C@@H](Sc3cccc(Cl)c3Cl)CC2)o1 [Example 34, 5-(trans-4-((2,3-dichlorophenyl)thio)-1-((6-(1H-pyrazol-3-ylamino)pyridin-2-yl)methyl)cyclohexyl)-1,3,4-oxadiazol-2(3H)-one trifluoroacetate]
[1]
  pIC50: 6.06
[2]; HeLa S3, 72 h
  inhibition at 0.1 µM: 3.9%
  inhibition at 0.3 µM: 40.8%
[2]; [6]
  Cell growth inhibitory effect by combined administration of docetaxel and the compound of Example (%): 83.8%
[2]; [4]
  Cell growth inhibitory effect by combined administration of docetaxel and the compound of Example (%): 93.9%
[3]
  pIC50: 6.16
Human Aurora A
  pIC50: 9.33

## O=C(O)[C@]1(Cc2cccc(Nc3nccs3)n2)CC[C@@H](Sc2cccc(Cl)c2Cl)CC1 [Example 30, trans-4-((2,3-dichlorophenyl)thio)-1-((6-(1,3-thiazol-2-ylamino)pyridin-2-yl)methyl)cyclohexanecarboxylic acid trifluoroacetate]
[1]
  pIC50: 6.47
[2]; HeLa S3, 72 h
  inhibition at 0.1 µM: 28.3%
  inhibition at 0.3 µM: 53.4%
[2]; [6]
  Cell growth inhibitory effect by combined administration of docetaxel and the compound of Example (%): 81.2%
[2]; [4]
  Cell growth inhibitory effect by combined administration of docetaxel and the compound of Example (%): 92.0%
[3]
  pIC50: 7.41
Human Aurora A
  pIC50: 10.10

## O=c1[nH]nc([C@]2(Cc3cccc(Nc4cc[nH]n4)n3)CC[C@@H](Oc3cccc(C(F)(F)F)c3F)CC2)o1 [Example 20, 5-(trans-4-(2-fluoro-3-(trifluoromethyl)phenoxy)-1-((6-(1H-pyrazol-3-ylamino)pyridin-2-yl)methyl)cyclohexyl)-1,3,4-oxadiazol-2(3H)-one]
[1]
  pIC50: 6.05
[2]; HeLa S3, 72 h
  inhibition at 0.3 µM: 25.9%
  inhibition at 1 µM: 49.8%
[2]; [4]
  Cell growth inhibitory effect by combined administration of docetaxel and the compound of Example (%): 85.0%
[2]; [5]
  Cell growth inhibitory effect by combined administration of docetaxel and the compound of Example (%): 94.4%
[3]
  pIC50: 6.18
Human Aurora A
  pIC50: 9.00

## Cl.O=C(O)[C@]1(Cc2cccc(Nc3nccs3)n2)CC[C@@H](Oc2cccc(Cl)c2F)CC1 [Example 1, trans-4-(3-chloro-2-fluorophenoxy)-1-((6-(1,3-thiazol-2-ylamino)pyridin-2-yl)methyl)cyclohexanecarboxylic acid hydrochloride]
[1]
  pIC50: 5.71
[2]; 72 h
  inhibition at 0.3 µM: 4.4%
[2]; [4]
  Cell growth inhibitory effect by combined administration of docetaxel and the compound of Example (%): 84.7%
